In article PMC11813147, “Bioactivity assessment of peptides derived from salted jellyfish (Rhopilema hispidum) byproducts” (PLOS ONE, 2025):

Assays:
[1] = test system: RAW 264.7; experiment: Cytotoxicity assessment (MTT); format: cell-based, Murine; conditions: peptide 10 µg/mL, 72 h
Experimental: (§1) Murine macrophage cells (RAW 264.7; ATCC TIB-71™) were cultured in Dulbecco’s Modified Eagle’s Medium (DMEM) that was supplemented with 10% heat-inactivated fetal bovine serum (FBS) and 1% antibiotic solution. Colorectal adenocarcinoma cells (CaCo-2; ATCC HTB 37™) were cultured in Eagle’s Minimum Essential Medium (EMEM), also supplemented with 10% heat-inactivated FBS and 1% antibiotic solution. Both cell types were maintained in a humidified incubator with 5% CO2. The cell culture medium was refreshed every three days.
Cytotoxicity assessment was performed following the method described by Yang et al., with slight modifications. RAW 264.7 was seeded with 1 x 10^5 cells in a 96-well plate with an appropriate cell culture medium. After allowing the cells to attach, the medium was replaced with a fresh cell culture medium containing the peptide samples at a concentration of 10 µg/mL. The treated cells were incubated for an additional 72 h. At the designated time, fresh medium was added, which included 3-(4,5-dimethylthiazol-2-yl)-2,5-diphenyltetrazolium bromide (MTT) at a concentration of 0.5 mg/mL. After 3 h, formazan crystals were observed. The medium was then removed, and the crystals were dissolved in 100% dimethyl sulfoxide (DMSO). A microplate reader (Synergy HTX; Biotek, Multi-Mode Reader, Winooski, VT, USA) was utilized to measure the absorbance at 570 nm (measurement wavelength) and 630 nm (reference wavelength). The percentage of cell viability was calculated relative to untreated cells using the following equation (5):
Cellviability%=ODtreatment–ODblank/ODuntreated–ODblank×100 (5)
Where ODtreatment is the absorbance of the treated sample, ODuntreated is the absorbance of the untreated sample, and ODblank is the absorbance from wells without treated and untreated samples.

[2] = ABTS radical scavenging assay; format: biochemical; conditions: supplement tables; for ABTS, mean±SD: n = 3
Experimental: The ABTS radical scavenging activity of the sample was measured using a method adapted from Mirzaei et al.. The ABTS radical was generated by mixing 7 mM ABTS with 2.45 mM potassium persulfate in a 1:1 ratio and incubating the mixture in the dark at room temperature for 12 to 16 h. The resulting solution was then diluted to achieve an absorbance of 0.74 ± 0.03 at 734 nm, using deionized water for adjustments. Next, 10 μL of the sample was added to 190 μL of the ABTS solution. The mixture was incubated in the dark for 7 min, after which the absorbance was measured at 734 nm. The ABTS radical scavenging activity (%) was calculated using the following equation (2):
ABTSradicalscavengingactivity%=Acontrol–Asample/Acontrol×100 (2)
In this equation, Acontrol refers to the absorbance of the control solution (which contains all reagents except the test samples), while Asample refers to the absorbance of the mixture containing the sample and the ABTS solution. To determine the Trolox equivalent antioxidant capacity (TEAC), a Trolox standard curve was used, and the results were expressed as millimoles of Trolox equivalents per milligram of protein (mM TE/mg protein).

[3] = DPPH radical scavenging assay; format: biochemical; conditions: supplement tables; for DPPH, mean±SD: n = 3
Experimental: The DPPH radical scavenging activity of the sample was assessed following a modified protocol based on a previous study. In each well of a 96-well plate, 10 μL of the sample was added, followed by 190 μL of 0.1 mM DPPH solution in 70% ethanol. The mixture was then incubated at room temperature in the dark for 30 min. After the incubation period, the absorbance of the mixture was measured at 517 nm. The DPPH radical scavenging activity was calculated using the following equation (1):
DPPHradicalscavengingactivity%=Acontrol–Asample/Acontrol×100 (1)
In this equation, Acontrol represents the absorbance of a control solution containing all reagents except for the test samples, while Asample is the absorbance of the mixture (the sample combined with 0.1 mM DPPH). To determine the Trolox equivalent antioxidant capacity (TEAC), a Trolox standard curve was utilized. The results were expressed as millimoles of Trolox equivalents per milligram of protein (mM TE/mg protein).

[4] = test system: angiotensin I-converting enzyme (ACE); experiment: ACE inhibitory activity assay (fluorometric ACE activity assay kit); format: biochemical
Experimental: The ACE inhibitory activity assay was performed following the method outlined by Batista et al., with slight modifications, using a fluorometric angiotensin I-converting enzyme (ACE) activity assay kit from Sigma-Aldrich (catalog number CS0002), Burlington, Massachusetts, USA. In summary, 10 µ L of the sample (1 mg/mL for the peptide sample and 50 µg/mL for ramipril) was combined with 40 µ L of the ACE solution (CS0002B) in 96-well flat-bottom black plates at 37 °C for 5 min. Next, 50 µ L of the substrate solution (CS0002C) was added to this mixture to initiate the reaction. A fluorescence multiwell plate reader was used to monitor the changes in fluorescence. The sample’s fluorescence was measured every min for 5 min, with excitation at 320 nm and emission at 405 nm. All reagents, except the test sample, were prepared to assess the ACE positive control activity. A kit standard solution (CS0002D) was diluted with assay buffer (CS0002A) to create different concentrations (nmol) of the standard solution, allowing generation of a standard curve. The slope of the standard curve (RFU/nmol) and the slope of the sample kinetic curve were utilized to calculate the ACE activity using the following equation (3):
ACEactivitynmol/min=Slopesample/Slopestandard×DF (3)
Where Slopesample refers to the slope of the blank-subtracted sample curve (RFU/min), Slopestandard refers to the slope of the blank-subtracted standard curve (RFU/nmol), DF is the dilution factor, and 0.1 nmol/min is equivalent to […].
In this study, the results of ACE inhibitory activity are expressed as percentages. The ACE inhibitory activity (%) was calculated using the following equation (4):
ACEinhibitoryactivity%=ACEPC–ACES/ACEPC×100 (4)
Where ACEPC represents the ACE activity of the positive control, and ACES denotes the ACE activity of the sample.

[5] = test system: RAW 264.7; experiment: Anti-inflammation assay: released NO in LPS-stimulated RAW 264.7 (Griess); format: cell-based, Murine; conditions: then 1 µg/mL LPS 24 h; for Released NO: peptide 10 µg/mL 1 h; for Released NO, mean±SD: peptide 10 µg/mL pre-treatment 1 h, Griess reagent, n = 3
Experimental: as §1
The anti-inflammation assay was conducted following the method described by Barzkar et al. with slight modifications. RAW 264.7 (1 x 10^5 cells) was seeded into a 96-well plate to allow for cell attachment. After 24 h, the cells were pre-treated with fresh medium containing peptide samples at a concentration of 10 µg/mL for 1 h. Subsequently, the treated cells were stimulated with 1 µg/mL lipopolysaccharide (LPS) for an additional 24 h. Unstimulated cells were included as a negative control. At the end of the treatment period, the conditioned medium was collected for the determination of released nitric oxide (NO). Griess’s reagent (Promega) was utilized to measure the NO concentration, following the manufacturer’s instructions. A NO calibration curve was generated to quantify the released NO in the conditioned medium.

[6] = Ferric reducing antioxidant power (FRAP) assay; format: biochemical
Experimental: The FRAP assay was conducted following the method outlined by Rumpf et al.. The FRAP solution was prepared by mixing 300 mM acetate buffer (pH 3.6), 10 mM TPTZ (2,4,6-Tris(2-pyridyl)-s-triazine) in 40 mM hydrochloric acid, and 20 mM FeCl3 in a ratio of 10:1:1. In a 96-well plate, 10 μL of the sample was combined with 190 μL of the FRAP solution and incubated in the dark for 15 min. The absorbance of the mixture was then measured at 593 nm. FeSO4 was used to create the standard curve, and the results were expressed as millimoles of FeSO4 equivalent per milligram of protein (mM FeSO4/mg protein).

[7] = peptide sample 1 mg/mL, 37 °C, fluorescence ex 320/em 405 nm, mean ± SD, n = 3, SD
[8] = peptide sample 1 mg/mL, replicate 1
[9] = peptide sample 1 mg/mL, replicate 2
[10] = peptide sample 1 mg/mL, replicate 3
[11] = 10 µL sample + 190 µL FRAP solution, 15 min dark, 593 nm, FeSO4 standard curve, mean ± SD, n = 3, SD

Row | Compound | Cell viability ([1]; replicate 1) [%] | Cell viability ([1]; replicate 2) [%] | Cell viability ([1]; replicate 3) [%] | ABTS, mean±SD [2] | ABTS ([2]; replicate 1) [TE/mg protein] | ABTS ([2]; replicate 2) [TE/mg protein] | ABTS ([2]; replicate 3) [TE/mg protein] | DPPH, mean±SD [3] | DPPH ([3]; replicate 1) [TE/mg protein] | DPPH ([3]; replicate 2) [TE/mg protein] | DPPH ([3]; replicate 3) [TE/mg protein] | ACE inhibitory activity [4, 8] [%] | ACE inhibitory activity [4, 9] [%] | ACE inhibitory activity [4, 10] [%] | Released NO ([5]; replicate 1) [µM] | Released NO ([5]; replicate 2) [µM] | Released NO ([5]; replicate 3) [µM] | Released NO, mean±SD [5] | FRAP ([6]; supplement tables, replicate 1) [mM FeSO4/mg protein] | FRAP ([6]; supplement tables, replicate 2) [mM FeSO4/mg protein] | also measured
1 | NFTVLCDSLE [P10, synthesized peptide identified from jellyfish fraction PUR20C] | 85.41 | 84.35 | 86.29 | 98.00±0.50^G TE/mg protein | 97.47 | 98.07 | 98.47 | 45.99±1.10^B TE/mg protein | 46.34 | 44.75 | 46.87 | 11.25 | 9.82 | 8.39 | 35.86 | 35.17 | 38.27 | 36.43 µM | 20.05 | 21.10 | Cell viability, mean±SD ([1]; relative to untreated cells, mean ± SD, n = 3, SD): 85.35%; inhibition [4, 7]: 9.82 ± 1.43%; FRAP ([6]; supplement tables, replicate 3): 18.36 mM FeSO4/mg protein
2 | LMFMAVAFF [P12, synthesized peptide identified from jellyfish fraction PUR20C] | 76.97 | 73.98 | 74.86 | 0.64±0.30^M TE/mg protein | 0.90 | 0.30 | 0.70 | 2.75 TE/mg protein | 2.58 | 2.58 | 3.11 | 49.61 | 43.60 | 49.33 | 36.89 | 38.62 | 40.00 | 38.50±1.55^B µM | 16.26 | 17.31 | ACE inhibitory activity, mean±SD [4, 7]: 47.51±3.39^D %; FRAP [6, 11]: 16.75±0.52^B mM FeSO4/mg protein; FRAP ([6]; supplement tables, replicate 3): 16.68 mM FeSO4/mg protein
3 | EIILIPMF [P3, synthesized peptide identified from jellyfish fraction PUR20C] | 75.57 | 75.92 | 75.39 | 3.17 TE/mg protein | 3.31 | 2.71 | 3.51 | 2.93 TE/mg protein | 2.84 | 2.58 | 3.37 | 33.58 | 33.87 | 34.16 | 37.58 | 35.17 | 37.24 | 36.66 ± 1.30 µM | 9.31 | 9.31 | ACE inhibitory activity, mean±SD [4, 7]: 33.87±0.28^E %; FRAP [6, 11]: 9.24±0.12 mM FeSO4/mg protein; FRAP ([6]; supplement tables, replicate 3): 9.10 mM FeSO4/mg protein
4 | CCOC(=O)[C@H](CCc1ccccc1)N[C@@H](C)C(=O)N1[C@H](C(=O)O)C[C@@H]2CCC[C@@H]21 [Ramipril, ramipril, reference compound] |  |  |  |  |  |  |  |  |  |  |  |  |  |  |  |  |  |  |  |  | ACE inhibitory activity, mean±SD ([4]; ramipril 50 µg/mL, mean ± SD, n = 3, SD): 23.23±0.44^G %; ACE inhibitory activity, mean±SD ([4]; ramipril 50 µg/mL, mean ± SD, n = 3, listed as ramipril, SD): 23.23 ± 0.44%; ACE inhibitory activity ([4]; ramipril 50 µg/mL, replicate 1): 22.79%; ACE inhibitory activity ([4]; ramipril 50 µg/mL, replicate 2): 23.23%; ACE inhibitory activity ([4]; ramipril 50 µg/mL, replicate 3): 23.67%
